Test system: histamine H2 -receptors
Test: inhibition of histamine-stimulated secretion of gastric acid from the lumen-perfused stomachs of rats anaesthetised with urethane
Format: in vivo
Settings: i.v., lumen-perfused stomach of urethane-anaesthetised rats

N=C(N)Nc1nc(CSCCNc2[nH]ccc2[N+](=O)[O-])cs1 [Example 1, 2-[2-(2-Guanidino-4-thiazolylmethylthio)ethylamino]-3-nitropyrrole]
dose causing 50% inhibition of maximal acid secretion: less than 0.1 micromole kg^-1
